Measured values taken from patent publication US20250059198A1, “BRM DEGRADING COMPOUNDS AND ASSOCIATED METHODS OF USE” (Arvinas Operations, Inc., priority 2021, published 2025).

Molecular target: T1, BRM (Homo sapiens, UniProt P51531)
T1 construct: Western Blot Screen of BRM Degradation in SW1573 Cells; endogenous in cells; host or cells: SW1573 cells
Assay: BRM degradation (Dmax and DC50) in SW1573 cells, Western blot screen / In-Cell Western screen
Assay type: cell-based
Settings: overnight (18-20 hours) treatment; for Dmax: read-out: Dmax (%)** (% degraded)
How it was run: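 Dmax and DC50 were derived from BRM levels normalised to an alpha-tubulin control, measured by chemiluminescent Western blotting of lysates or by PFA-fixed In-Cell Western on LI-COR Odyssey. SW1573 cells received compound overnight (18–20 h, 0.1% DMSO final).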

T1 sequence (P51531 whole entry): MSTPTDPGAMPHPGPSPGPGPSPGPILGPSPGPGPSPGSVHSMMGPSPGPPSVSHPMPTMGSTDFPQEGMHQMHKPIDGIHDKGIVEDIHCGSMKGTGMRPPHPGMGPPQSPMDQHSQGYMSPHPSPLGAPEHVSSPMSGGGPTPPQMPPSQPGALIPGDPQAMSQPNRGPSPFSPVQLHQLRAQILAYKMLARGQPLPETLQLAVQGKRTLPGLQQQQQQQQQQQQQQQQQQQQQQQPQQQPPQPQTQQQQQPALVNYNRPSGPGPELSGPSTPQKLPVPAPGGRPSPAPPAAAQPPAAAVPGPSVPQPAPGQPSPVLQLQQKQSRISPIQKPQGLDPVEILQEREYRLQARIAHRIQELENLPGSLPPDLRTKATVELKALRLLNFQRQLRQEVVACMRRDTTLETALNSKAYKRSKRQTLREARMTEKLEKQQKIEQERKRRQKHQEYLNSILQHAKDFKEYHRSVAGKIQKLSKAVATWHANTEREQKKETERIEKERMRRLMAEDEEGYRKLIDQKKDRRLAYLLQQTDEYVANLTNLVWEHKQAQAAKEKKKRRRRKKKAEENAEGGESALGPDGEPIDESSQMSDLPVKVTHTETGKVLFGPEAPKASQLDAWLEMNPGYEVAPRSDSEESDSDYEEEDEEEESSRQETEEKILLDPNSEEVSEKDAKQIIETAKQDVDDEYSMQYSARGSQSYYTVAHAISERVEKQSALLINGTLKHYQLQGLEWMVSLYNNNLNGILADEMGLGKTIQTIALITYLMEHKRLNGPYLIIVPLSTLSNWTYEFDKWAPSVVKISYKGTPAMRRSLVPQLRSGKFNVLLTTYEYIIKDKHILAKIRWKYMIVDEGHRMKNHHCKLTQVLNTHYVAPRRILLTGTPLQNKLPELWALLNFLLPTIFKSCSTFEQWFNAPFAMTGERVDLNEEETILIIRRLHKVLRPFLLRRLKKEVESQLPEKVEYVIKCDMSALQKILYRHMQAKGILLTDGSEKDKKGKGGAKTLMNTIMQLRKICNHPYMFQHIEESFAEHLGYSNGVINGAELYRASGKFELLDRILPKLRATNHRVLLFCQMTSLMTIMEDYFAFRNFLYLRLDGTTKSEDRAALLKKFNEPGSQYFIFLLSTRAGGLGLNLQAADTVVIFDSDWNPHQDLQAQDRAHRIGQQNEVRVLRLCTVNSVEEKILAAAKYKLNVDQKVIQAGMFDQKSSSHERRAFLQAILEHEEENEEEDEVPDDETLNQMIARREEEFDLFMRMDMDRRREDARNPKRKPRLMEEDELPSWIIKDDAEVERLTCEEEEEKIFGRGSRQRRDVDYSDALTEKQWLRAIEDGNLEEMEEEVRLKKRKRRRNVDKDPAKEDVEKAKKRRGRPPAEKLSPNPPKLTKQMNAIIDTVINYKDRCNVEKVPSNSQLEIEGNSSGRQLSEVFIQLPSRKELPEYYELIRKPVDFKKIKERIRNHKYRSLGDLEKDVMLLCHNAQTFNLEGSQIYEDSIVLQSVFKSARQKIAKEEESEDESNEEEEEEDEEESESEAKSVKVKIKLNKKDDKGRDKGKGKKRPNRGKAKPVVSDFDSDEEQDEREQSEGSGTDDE

Cc1ncsc1-c1ccc([C@H](C)NC(=O)[C@@H]2C[C@@H](O)CN2C(=O)[C@@H](c2cc(N3CCN(C(=O)N4CCC(O[C@H]5C[C@H](Oc6cc(N7C8CCC7CN(c7cc(-c9ccccc9O)nnc7N)C8)ccn6)C5)CC4)CC3)no2)C(C)C)cc1 [Compound 123, (2S,4R)-4-hydroxy-N-[(1S)-1-[4-(4-methyl-1,3-thiazol-5-yl)phenyl]ethyl]-1-[(2S)-3-methyl-2-[3-(4-{4-[(1r,3r)-3-[(4-{3-[3-amino-6-(2-hydroxyphenyl)pyridazin-4-yl]-3,8-diazabicyclo[3.2.1]octan-8-yl}pyridin-2-yl)oxy]cyclobutoxy]piperidine-1-carbonyl}piperazin-1-yl)-1,2-oxazol-5-yl]butanoyl]pyrrolidine-2-carboxamide]
DC50: < 2.5 nM
Dmax: > 75%

Cc1ncsc1-c1ccc([C@H](C)NC(=O)[C@@H]2C[C@@H](O)CN2C(=O)[C@H](c2cc(N3CCN(C(=O)N4CCC(O[C@H]5C[C@H](Oc6cc(N7C8CCC7CN(c7cc(-c9ccccc9O)nnc7N)C8)ccn6)C5)CC4)CC3)no2)C(C)C)cc1 [Compound 124, (2S,4R)-4-hydroxy-N-[(1S)-1-[4-(4-methyl-1,3-thiazol-5-yl)phenyl]ethyl]-1-[(2R)-3-methyl-2-[3-(4-{4-[(1r,3r)-3-[(4-{3-[3-amino-6-(2-hydroxyphenyl)pyridazin-4-yl]-3,8-diazabicyclo[3.2.1]octan-8-yl}pyridin-2-yl)oxy]cyclobutoxy]piperidine-1-carbonyl}piperazin-1-yl)-1,2-oxazol-5-yl]butanoyl]pyrrolidine-2-carboxamide]
DC50: ≥ 30 nM

Cc1ncsc1-c1ccc([C@H](C)NC(=O)[C@@H]2C[C@@H](O)CN2C(=O)[C@@H](c2cc(N3CCC(CN4CCC5(CC4)CC(N4CCOC6(CN(CC7C8CCC7CN(c7cc(-c9ccccc9O)nnc7N)C8)C6)C4)C5)CC3)no2)C(C)C)cc1 (stereo partly drawn) [Compound 125, (2S,4R)-1-[(2R)-2-{3-[4-({2-[2-({3-[3-amino-6-(2-hydroxyphenyl)pyridazin-4-yl]-3-azabicyclo[3.2.1]octan-8-yl}methyl)-5-oxa-2,8-diazaspiro[3.5]nonan-8-yl]-7-azaspiro[3.5]nonan-7-yl}methyl)piperidin-1-yl]-1,2-oxazol-5-yl}-3-methylbutanoyl]-4-hydroxy-N-[(1S)-1-[4-(4-methyl-1,3-thiazol-5-yl)phenyl]ethyl]pyrrolidine-2-carboxamide]
DC50: < 2.5 nM
Dmax: > 75%

Cc1ncsc1-c1ccc([C@H](C)NC(=O)[C@@H]2C[C@@H](O)CN2C(=O)[C@@H](c2cc(N3CCC(CN4CCC5(CC4)CC(N4CCOC6(CC(CN7C8CCC7CN(c7cc(-c9ccccc9O)nnc7N)C8)C6)C4)C5)CC3)no2)C(C)C)cc1 [Compound 126, (2S,4R)-1-[(2R)-2-{3-[4-({2-[2-({3-[3-amino-6-(2-hydroxyphenyl)pyridazin-4-yl]-3,8-diazabicyclo[3.2.1]octan-8-yl}methyl)-5-oxa-8-azaspiro[3.5]nonan-8-yl]-7-azaspiro[3.5]nonan-7-yl}methyl)piperidin-1-yl]-1,2-oxazol-5-yl}-3-methylbutanoyl]-4-hydroxy-N-[(1S)-1-[4-(4-methyl-1,3-thiazol-5-yl)phenyl]ethyl]pyrrolidine-2-carboxamide]
DC50: 2.5 to 10 nM
Dmax: > 75%

Cc1ncsc1-c1ccc([C@H](C)NC(=O)[C@@H]2C[C@@H](O)CN2C(=O)[C@@H](c2cc(OCCOC(=O)N3CCC(O[C@H]4C[C@H](Oc5cc(N6C7CCC6CN(c6cc(-c8ccccc8O)nnc6N)C7)ccn5)C4)CC3)no2)C(C)C)cc1 [Compound 127, 2-({5-[(2R)-1-[(2S,4R)-4-hydroxy-2-{[(1S)-1-[4-(4-methyl-1,3-thiazol-5-yl)phenyl]ethyl]carbamoyl}pyrrolidin-1-yl]-3-methyl-1-oxobutan-2-yl]-1,2-oxazol-3-yl}oxy)ethyl 4-[(1r,3r)-3-[(4-{3-[3-amino-6-(2-hydroxyphenyl)pyridazin-4-yl]-3,8-diazabicyclo[3.2.1]octan-8-yl}pyridin-2-yl)oxy]cyclobutoxy]piperidine-1-carboxylate]
DC50: ≥ 30 nM

Cc1ncsc1-c1ccc([C@H](C)NC(=O)[C@@H]2C[C@@H](O)CN2C(=O)[C@@H](c2cc(N3CCC(OC(=O)N4CCC(Oc5cc(N6C7CCC6CN(c6cc(-c8ccccc8O)nnc6N)C7)ccn5)CC4)CC3)no2)C(C)C)cc1 [Compound 128, 1-(5-((R)-1-((2S,4R)-4-hydroxy-2-(((S)-1-(4-(4-methylthiazol-5-yl)phenyl)ethyl)carbamoyl)pyrrolidin-1-yl)-3-methyl-1-oxobutan-2-yl)isoxazol-3-yl)piperidin-4-yl 4-((4-(3-(3-amino-6-(2-hydroxyphenyl)pyridazin-4-yl)-3,8-diazabicyclo[3.2.1]octan-8-yl)pyridin-2-yl)oxy)piperidine-1-carboxylate]
DC50: < 2.5 nM
Dmax: > 75%

Cc1ncsc1-c1ccc([C@H](C)NC(=O)[C@@H]2C[C@@H](O)CN2C(=O)[C@@H](c2cc(N3CCN(C(=O)N4CC(Oc5cc(N6C7CCC6CN(c6cc(-c8ccccc8O)nnc6N)C7)ccn5)C4)CC3)no2)C(C)C)cc1 [Compound 129, (2S,4R)-1-[(2R)-2-[3-(4-{3-[(4-{3-[3-amino-6-(2-hydroxyphenyl)pyridazin-4-yl]-3,8-diazabicyclo[3.2.1]octan-8-yl}pyridin-2-yl)oxy]azetidine-1-carbonyl}piperazin-1-yl)-1,2-oxazol-5-yl]-3-methylbutanoyl]-4-hydroxy-N-[(1S)-1-[4-(4-methyl-1,3-thiazol-5-yl)phenyl]ethyl]pyrrolidine-2-carboxamide]
DC50: 2.5 to 10 nM
Dmax: > 75%

Cc1ncsc1-c1ccc([C@H](C)NC(=O)[C@@H]2C[C@@H](O)CN2C(=O)[C@@H](c2cc(N3CCC(CN4CCC(O[C@H]5C[C@H](N6CCC(Cc7cn(-c8cc(-c9ccccc9O)nnc8N)cn7)CC6)C5)CC4)CC3)no2)C(C)C)cc1 [Compound 130, (2S,4R)-4-hydroxy-N-[(1S)-1-[4-(4-methyl-1,3-thiazol-5-yl)phenyl]ethyl]-1-[(2R)-3-methyl-2-{3-[4-({4-[(1r,3r)-3-[4-({1-[3-amino-6-(2-hydroxyphenyl)pyridazin-4-yl]-1H-imidazol-4-yl}methyl)piperidin-1-yl]cyclobutoxy]piperidin-1-yl}methyl)piperidin-1-yl]-1,2-oxazol-5-yl}butanoyl]pyrrolidine-2-carboxamide]
DC50: 10 to 30 nM
Dmax: > 75%

Cc1ncsc1-c1ccc([C@H](C)NC(=O)[C@@H]2C[C@@H](O)CN2C(=O)[C@H](c2cc(N3CCC(OC(=O)N4CCC(Oc5cc(N6C7CCC6CN(c6cc(-c8ccccc8O)nnc6N)C7)ccn5)CC4)CC3)no2)C(C)C)cc1 [Compound 131, 1-(5-((S)-1-((2S,4R)-4-hydroxy-2-(((S)-1-(4-(4-methylthiazol-5-yl)phenyl)ethyl)carbamoyl)pyrrolidin-1-yl)-3-methyl-1-oxobutan-2-yl)isoxazol-3-yl)piperidin-4-yl 4-((4-(3-(3-amino-6-(2-hydroxyphenyl)pyridazin-4-yl)-3,8-diazabicyclo[3.2.1]octan-8-yl)pyridin-2-yl)oxy)piperidine-1-carboxylate]
DC50: ≥ 30 nM
